Source: ChEMBL document CHEMBL4359904, “Structural tuning of acridones for developing anticancer agents targeting dihydrofolate reductase” (Bioorg Med Chem Lett, 2019)
The source made the active and inactive calls. The calls are words filed in the database; no cut-off is given here.

Columns and labels:
[1] = system: SNB-75; assay: Growth inhibition of human SNB75 cells incubated for 48 hrs by sulforhodamine B assay; assay type: functional; conditions: SNB-75, 48 h
[2] = system: C6; assay: Cell cycle arrest in rat C6 cells assessed as increase in cell population at sub G0 phase measured after 24 hrs by propidium iodide staining based flow cytometry analysis; assay type: functional
[3] = system: C6; assay: Cell cycle arrest in rat C6 cells assessed as decrease in cell population at G2/M phase measured after 24 hrs by propidium iodide staining based flow cytometry analysis; assay type: functional
[4] = system: IGROV-1; assay: Growth inhibition of human IGROV1 cells at 10^-5 M incubated for 48 hrs by sulforhodamine B assay relative to control; assay type: functional; conditions: IGROV-1, 48 h, read-out: GI
[5] = target: T1, Dihydrofolate reductase (Homo sapiens, UniProt P00374); assay: Inhibition of human dihydrofolate reductase assessed as inhibition constant by UV-Vis spectra based Benesi Hilebrand equation analysis
T1 sequence (P00374 whole entry): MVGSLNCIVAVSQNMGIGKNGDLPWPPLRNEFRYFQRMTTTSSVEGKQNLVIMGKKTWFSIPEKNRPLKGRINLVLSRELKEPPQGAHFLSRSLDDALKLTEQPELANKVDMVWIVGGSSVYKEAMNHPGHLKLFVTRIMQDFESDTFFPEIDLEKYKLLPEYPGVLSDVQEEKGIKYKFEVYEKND

[6] = system: CCRF-CEM; assay: Growth inhibition of human CCRF-CEM cells at 10^-5 M incubated for 48 hrs by sulforhodamine B assay relative to control; assay type: functional; conditions: read-out: GI
[7] = system: HCT-116; assay: Growth inhibition of human HCT116 cells incubated for 48 hrs by sulforhodamine B assay; assay type: functional; conditions: HCT-116, 48 h
[8] = system: EKVX; assay: Growth inhibition of human EKVX cells incubated for 48 hrs by sulforhodamine B assay; assay type: functional
[9] = system: OVCAR-8; assay: Growth inhibition of human OVCAR8 cells incubated for 48 hrs by sulforhodamine B assay; assay type: functional; conditions: OVCAR-8, 48 h
[10] = system: RPMI-8226; assay: Growth inhibition of human RPMI8226 cells at 10^-5 M incubated for 48 hrs by sulforhodamine B assay relative to control; assay type: functional; conditions: RPMI-8226, 48 h, read-out: GI
[11] = system: HCC 2998; assay: Growth inhibition of human HCC2998 cells incubated for 48 hrs by sulforhodamine B assay; assay type: functional; conditions: HCC 2998, 48 h
[12] = system: MOLT-4; assay: Growth inhibition of human MOLT4 cells at 10^-5 M incubated for 48 hrs by sulforhodamine B assay relative to control; assay type: functional; conditions: MOLT-4, 48 h, read-out: GI
[13] = system: UO-31; assay: Growth inhibition of human UO31 cells incubated for 48 hrs by sulforhodamine B assay; assay type: functional; conditions: UO-31, 48 h
[14] = system: SR; assay: Growth inhibition of human SR cells at 10^-5 M incubated for 48 hrs by sulforhodamine B assay relative to control; assay type: functional; conditions: read-out: GI
[15] = system: DU-145; assay: Growth inhibition of human DU145 cells incubated for 48 hrs by sulforhodamine B assay; assay type: functional; conditions: DU-145, 48 h
[16] = system: OVCAR-5; assay: Growth inhibition of human OVCAR5 cells incubated for 48 hrs by sulforhodamine B assay; assay type: functional; conditions: OVCAR-5, 48 h
[17] = system: CCRF-CEM; assay: Growth inhibition of human CCRF-CEM cells incubated for 48 hrs by sulforhodamine B assay; assay type: functional
[18] = system: A549; assay: Growth inhibition of human A549/ATCC cells incubated for 48 hrs by sulforhodamine B assay; assay type: functional; conditions: A549, 48 h
[19] = system: HL-60(TB); assay: Growth inhibition of human HL-60(TB) cells incubated for 48 hrs by sulforhodamine B assay; assay type: functional; conditions: HL-60, 48 h
[20] = system: BT-549; assay: Growth inhibition of human BT549 cells incubated for 48 hrs by sulforhodamine B assay; assay type: functional; conditions: BT-549, 48 h
[21] = system: HOP-62; assay: Growth inhibition of human HOP62 cells incubated for 48 hrs by sulforhodamine B assay; assay type: functional; conditions: HOP-62, 48 h
[22] = system: Malme-3M; assay: Growth inhibition of human MALME-3M cells incubated for 48 hrs by sulforhodamine B assay; assay type: functional
[23] = system: KM12; assay: Growth inhibition of human KM12 cells incubated for 48 hrs by sulforhodamine B assay; assay type: functional; conditions: KM12, 48 h
[24] = system: SR; assay: Growth inhibition of human SR cells incubated for 48 hrs by sulforhodamine B assay; assay type: functional
[25] = system: SF-295; assay: Growth inhibition of human SF295 cells incubated for 48 hrs by sulforhodamine B assay; assay type: functional; conditions: SF-295, 48 h
[26] = system: SN12C; assay: Growth inhibition of human SN12C cells incubated for 48 hrs by sulforhodamine B assay; assay type: functional
[27] = system: MCF7; assay: Growth inhibition of human MCF7 cells at 10^-5 M incubated for 48 hrs by sulforhodamine B assay relative to control; assay type: functional; conditions: MCF7, 48 h, read-out: GI
[28] = system: OVCAR-5; assay: Growth inhibition of human OVCAR5 cells at 10^-5 M incubated for 48 hrs by sulforhodamine B assay relative to control; assay type: functional; conditions: OVCAR-5, 48 h, read-out: GI
[29] = system: NCI-H522; assay: Growth inhibition of human NCI-H522 cells incubated for 48 hrs by sulforhodamine B assay; assay type: functional; conditions: NCI-H522, 48 h
[30] = system: UACC-62; assay: Growth inhibition of human UACC62 cells incubated for 48 hrs by sulforhodamine B assay; assay type: functional; conditions: UACC-62, 48 h
[31] = system: SF-268; assay: Growth inhibition of human SF268 cells incubated for 48 hrs by sulforhodamine B assay; assay type: functional; conditions: SF-268, 48 h
[32] = system: C6; assay: Cell cycle arrest in rat C6 cells assessed as cell population at G0/G1 phase measured after 24 hrs by propidium iodide staining based flow cytometry analysis; assay type: functional
[33] = read-out: pLC50 (the source's name) (converted)
[34] = read-out: LC50 (the source's name)

`O=C(OC[C@@H]1CO1)c1cccc2c(=O)c3ccccc3[nH]c12` gave a GI50 [1] of 1.51 µM, a CC50 [1, 33] of 7.94 µM and a TGI ([1]; read-out: pTGI (converted)) of 3.47 µM. The Activity [2] was “Active”, the inhibition [3] was “Active” and the inhibition of growth at 10 µM [4] was 100%. The Ki [5] was 0.092 µM, the inhibition of growth at 10 µM [6] was 93% and the GI50 [7] was 1.12 µM. It also gave a CC50 [7, 33] of over 100 µM, a TGI ([7]; read-out: pTGI (converted)) of 8.71 µM and a GI50 [8] of 2.57 µM. The CC50 [8, 33] was over 100 µM, the TGI ([8]; read-out: pTGI (converted)) was 6.46 µM and the GI50 [9] was 1.26 µM. The CC50 [9, 33] was 41.7 µM, the TGI ([9]; read-out: pTGI (converted)) was 5.37 µM and the inhibition of growth at 10 µM [10] was 100%. The GI50 [11] was 1.51 µM, the CC50 [11, 33] was 7.76 µM and the TGI ([11]; read-out: pTGI (converted)) was 3.47 µM. The inhibition of growth at 10 µM [12] was 99%, the GI50 [13] was 1.74 µM and the CC50 [13, 33] was 77.6 µM. For the same compound, the TGI ([13]; read-out: pTGI (converted)) was 5.01 µM, the inhibition of growth at 10 µM [14] was 90% and the GI50 [15] was 1.35 µM. The CC50 [15, 33] was over 100 µM, the TGI ([15]; read-out: pTGI (converted)) was 5.89 µM and the GI50 [16] was 2.45 µM. The CC50 [16, 33] was over 100 µM, the TGI ([16]; read-out: pTGI (converted)) was 6.46 µM and the GI50 ([17]; read-out: GI50) was 0.77 µM. For the same compound, the CC50 [17, 34] was over 100 µM, the CC50 [17, 33] was over 100 µM and the TGI ([17]; read-out: pTGI (converted)) was 21.9 µM. It also gave a GI50 [18] of 2.45 µM, a CC50 [18, 33] of over 100 µM and a TGI ([18]; read-out: pTGI (converted)) of 7.24 µM. For the same compound, the GI50 [19] was 1.29 µM, the CC50 [19, 33] was 8.51 µM and the TGI ([19]; read-out: pTGI (converted)) was 3.31 µM. The GI50 [20] was 1.91 µM, the CC50 [20, 33] was over 100 µM and the TGI ([20]; read-out: pTGI (converted)) was 6.03 µM. The GI50 [21] was 2.14 µM, the CC50 [21, 33] was over 100 µM and the TGI ([21]; read-out: pTGI (converted)) was 5.89 µM. It also gave a GI50 [22] of 1.66 µM, a CC50 [22, 33] of 6.17 µM and a TGI ([22]; read-out: pTGI (converted)) of 3.16 µM. It also gave a GI50 [23] of 2.19 µM, a CC50 [23, 33] of over 100 µM and a TGI ([23]; read-out: pTGI (converted)) of 7.08 µM. It also gave a GI50 ([24]; read-out: GI50) of 0.3 µM, a CC50 [24, 34] of over 100 µM and a GI50 ([24]; read-out: pGI50 (converted)) of 0.302 µM. The CC50 [24, 33] was over 100 µM, the TGI ([24]; read-out: pTGI (converted)) was 4.37 µM and the GI50 [25] was 2.88 µM. It also gave a CC50 [25, 33] of over 100 µM, a TGI ([25]; read-out: pTGI (converted)) of 9.55 µM and a GI50 [26] of 1.82 µM. It also gave a CC50 [26, 33] of 41.7 µM, a TGI ([26]; read-out: pTGI (converted)) of 7.08 µM and an inhibition of growth at 10 µM [27] of 100%. For the same compound, the inhibition of growth at 10 µM [28] was 100%, the GI50 [29] was 1.62 µM and the CC50 [29, 33] was 8.71 µM. It also gave a TGI ([29]; read-out: pTGI (converted)) of 3.72 µM, a GI50 [30] of 1.58 µM and a CC50 [30, 33] of 6.03 µM. It also gave a TGI ([30]; read-out: pTGI (converted)) of 3.09 µM, a GI50 ([31]; read-out: pGI50 (converted)) of 1.62 µM and a CC50 [31, 33] of over 100 µM. For the same compound, the TGI ([31]; read-out: pTGI (converted)) was 6.03 µM and the Activity [32] was “inactive”.
